# Assay results taken from patent US8906860B2, “Methods and compositions inhibiting tumor cell proliferation” (The Board of Trustees of the University of Illinois, priority 2011, dated 2014).
# Read-outs that look alike come from different tables or passages of the source. Square brackets hold non-standard residues; d marks the D form. Ends that are not written are not given here.
# Key:
# GFP-FoxM1B = assay: Nuclear localization of transfected GFP-FoxM1B in U2OS cells; assay type: cell-based, human; settings: 1 μM
# From the text: FIGS. 7A-H show nuclear localization of GFP-FoxM1B fusion protein following treatment with either pharmacological kinase inhibitors or dominant negative kinases. U20S cells were transiently transfected with CMV GFP-FoxM1B with the indicated pharmacological kinase inhibitors (B-D) or dominant-negative kinase expression vectors (E-H). Cells in panel (A) were untreated.
# U2OS cells were transiently transfected in 2 well chamber slides (Nunc) with CMV GFP-FoxM1B expression constructs in the presence or absence of either CMV WT T7-p19^ARF, CMV HA-p19^ARF, or CMV expression constructs containing either N-terminal mutant T7-p19^ARF proteins (Δ1-14, Δ15-25, or Δ26-37) or V5-TAT-p19^ARF proteins (26-44; SEQ ID NO: 11, or 26-55; SEQ ID NO: 12). U2OS cells were transiently transfected with CMV EGFP expression vector containing the TAT-p19^ARF proteins (26-44; SEQ ID NO: 11, or 26-55; SEQ ID NO: 12). Forty-eight hours post transfection, cells were fixed in 4% Para-formaldehyde for 20 minutes at room temperature. GFP fluorescence or immuno-fluorescence with anti-HA antibody following TRITC conjugated secondary antibody was detected using a Zeiss microscope. U2OS cells were treated with 12 μM of the rrrrrrrrrKFVRSRRPRTASCALAFVN (SEQ ID NO: 10) peptide for 24 hours and then analyzed for TRITC fluorescence as described above.
# parental U2OS cells = assay: Soft agar colony formation, parental U2OS cells; assay type: cell-based, human; settings: 12 μM peptide, two weeks
# Protocol: (§1) The T-REx™-U2OS cells were purchased from Invitrogen Life Technologies (Catalog No. R712-07). The T-REx™-U2OS cells express the Tet repressor from pCEP4/tetR that was episomally maintained in tissue culture medium containing 10% fetal calf serum and drug selection with 50 μg/ml of Hygromycin B. Tetracycline regulation in the T-REx System was based on the binding of tetracycline to the TET repressor and de-repressing of the CMV-TETO promoter controlling expression of the gene of interest (Yao et al., 1998, Hum Gene Ther 9:1939-1950). The pcDNA4-TO GFP-FoxM1B expression plasmid provided in the T-REx™ system was generated as described previously (Major et al., 2004, Mol. Cell. Biol. 24:2649-2661) and transfected T-REx™-U2OS cells with linearized pcDNA4-TO GFP-Foxm1b expression plasmid to select clonal Doxycycline inducible GFP-Foxm1b U2OS cell lines. CMV-TETO GFP-FoxM1B U2OS clones were isolated by selection for three weeks with tissue culture medium containing 50 μg/ml of Hygromycin B and 250 μg/ml of Zeocin. […] Wild type U2OS cells or CMV-TETO GFP-Foxm1b U2OS clone C3 cells were grown in medium with or without 1 μg/ml of Doxycycline for 2 days prior to either adding the (D-Arg)9-p19^ARF 26-44 peptide or left untreated. […] U2OS cell colonies that were larger than 1 mm in size were scored after two weeks of growth on the soft agar.
# [1] = system: FoxM1B transcriptional activity; assay: FoxM1B transcriptional activity, 6xFoxM1B TATA-luciferase reporter assay in transfected U2OS cells; assay type: cell-based, human; settings: 12 μM peptide, 24 hours
# From the text: A 6×FoxM1B/FoxA TATA-Luciferase utilized 6 copies of the FoxM1B/FoxA binding site (TTTGTTTGTTTG; SEQ ID NO: 6) from the cdx-2 promoter region driving expression of the CMV-TATA box luciferase reporter gene as described previously (Rausa et al., 2003, Mol. Cell. Biol. 23:437-449; Samadani et al., 1996, Mol. Cell. Biol. 16:6273-6284; Ye et al., 1997, Mol. Cell Biol. 17:1626-1641).
# Inhibiting Cdk1 activity with either dominant negative (DN) Cdk1 or a pharmacologically active concentration of Alsterpaullone (1 μM) caused an 80% to 90% reduction in FoxM1B transcriptional activity (FIG. 6C). […] Consistent with these findings, stimulation of Cdk1 activity by co-transfection of either CMV Cdc25B or Cdc25C phosphatases enhanced FoxM1B transcriptional activity by 3.4-fold and 1.7-fold, respectfully (FIGS. 6B and 6D). […]
# Human osteosarcoma U2OS cells were maintained in DMEM supplemented with 10% fetal calf serum, 1×Pen/Strep and 1×L-Glutamine (Gibco). […] Luciferase activity was determined as percent of wild type FoxM1B activity following normalization to Renilla activity. Experiments were performed at least four times in triplicate and mean±SD determined. […]
# [2] = system: CMV-TETO GFP-Foxm1b U2OS clone C3 cells; assay: Soft agar colony formation, Doxycycline induced GFP-FoxM1B U2OS clone C3 cells; assay type: cell-based, human; settings: 12 μM peptide, 1 μg/ml Doxycycline, two weeks
# Protocol: as §1
# HCC = settings: cited from earlier work
# S2 cells = settings: 24 hours
# Protocol: TUNEL assay was used to measure apoptosis in S2 cells treated with WT-blocked, mutant-blocked or WT-unblocked (D-Arg)9-p19^ARF 26-44 peptides. (D-Arg)9-p19^ARF 26-44 peptide treatment of cells was performed in 8-well chamber slides for TUNEL staining. On Day 0, 20,000 cells per well were seeded in the 8-well chamber slides. On Day 1, slides were replenished with fresh media containing one of the following concentrations of either WT-blocked, mutant-blocked or WT-unblocked (D-Arg)9-p19^ARF 26-44 peptides: 10, 15, 25, 30, 40 and 70 μM for 24 hours. On Day 2, TUNEL staining was performed following the manufacture's protocol (ApopTag® Fluorescein In Situ Apoptosis Detection Kit from CHEMICON® International, S7110). The percent of apoptosis of S2 cells (±SD) was measured by counting the number of TUNEL-positive cells (green fluorescence) per 1,000 nuclei as visualized by DAPI (blue fluorescence) counterstaining. The experiment was repeated in a second experiment using the same protocol. Statistical analysis and EC50 calculation were performed using GraphPad Prism software.
# [3] = system: p53 null thymic lymphoma cells; assay: Kidney colonization of intravenously injected p53 null thymic lymphoma cells in SCID mice; assay type: in vivo, mouse; settings: 2.5 mg/kg intraperitoneal every other day, 10 injections
# Protocol: These experiments were performed to determine if modifying the termini conferred any advantages on these peptides when administered to an animal. Both wild type ARF 26-44 (rrrrrrrrrKFVRSRRPRTASCALAFVN) (SEQ ID NO 10) and mutant ARF 37-44 (rrrrrrrrrSCALAFVN) (SEQ ID NO 21) peptides were synthesized by Genemed Synthesis Inc. (San Antonio, Tex.). The N-terminus of each peptide was fused with nine D-Arg(r) residues. Both wild type and mutant peptides were blocked with amidation on C-terminus and acetylation on N-terminus. For sarcoma cells, mice were treated with 5 mg/kg body weight of peptide every other day for 10 times. For lymphoma cells, mice were treated with 2.5 mg/kg body weight of peptide every other day for 10 times.
# To test the therapeutic effect of the ARF-peptide on p53 null tumors in vivo, p53 null lymphoma/sarcoma cells were introduced into the circulation of SCID mice through intravenous injection. ICR SCID mice were obtained from Taconic Farms (Germantown, N.Y.). Both p53 null sarcoma and lymphoma cells were stably transduced before injection with lentivirus carrying a gene conferring luciferase expression. Specifically, cells were stably transduced with pFU-L2G luciferase construct obtained from Sanjiv Sam Gambhir (M. D., Ph.D) of Stanford University as optimized by Dr. Huiping Liu (Liu et al., Proc Natl Acad Sci USA, 107: 18115-18120). This construct enabled expression of both the bioluminescence and green fluorescence protein. eGFP positive cells were sorted by Beckman Coulter MoFlo. 3×10^6 cells were suspended in cold PBS and injected through the tail vein of SCID mice. Live animal imaging was performed using an IVIS Spectrum optical imaging machine (Caliper Life Sciences, Alameda, Calif.). […] Mice were randomized into three groups and were treated with PBS, mutant-peptide or the wild type ARF-peptide for 10 injections every other day by intraperitoneal injection. […] The mice were sacrificed and lung sections were analyzed for tumor colonies. […] For the p53 null thymic lymphoma cells, metastatic growth in kidney was observed, consistent with murine thymic lymphoma cells having a tendency to colonize kidney, liver and spleen (Aoudjit et al., 1998, Blood, 91: 623-629).
compound,measurement,setting,value
O=C1Cc2c([nH]c3ccc([N+](=O)[O-])cc23)-c2ccccc2N1 [Alsterpaullone],Nuclear localization of transfected CMV GFP-FoxM1B protein,GFP-FoxM1B,Neither DN-Cdk1 nor Alsterpaullone (1 μM) altered nuclear localization
"rrrrrrrrrKFVRSRRPRTASCALAFVN ([dR][dR][dR][dR][dR][dR][dR][dR][dR]KFVRSRRPRTASCALAFVN; not fully specified (N-terminus, C-terminus); printed as rrrrrrrrrKFVRSRRPRTASCALAFVN; also: end groups differ between preparations (TRITC N-term/acetyl C-term vs Ac N-term/amide C-term); listed as Mus musculus) [(D-Arg)9-p19^ARF 26-44 peptide, p19ARF 26-44 peptide containing nine D-Arg residues at the N-terminus]",Colony formation on soft agar,parental U2OS cells,significantly diminished the ability of the parental U2OS cells to form colonies on soft agar
same,Effect on FoxM1B transcriptional activity,[1],significant reduction in FoxM1B transcriptional activity
same,FoxM1B induced colony formation on soft agar,[2],significantly diminished the ability of induced GFP-FoxM1B to stimulate colony formation
same,HCC tumor size / progression,HCC; mouse HCC (DEN/PB induced),effective in diminishing tumor size in HCC
same,Metastasis of HCC cells,HCC; mouse HCC cells,effectively prevented pulmonary metastasis of HCC cells
"rrrrrrrrrKFVRSRRPRTASCALAFVN (not fully specified (N-terminus, C-terminus); printed as rrrrrrrrrKFVRSRRPRTASCALAFVN; UniProt Q64364 26-44, looked up, fragment) [WT Unblocked]","% of TUNEL Positive S2 Cells, Mean","S2 cells; Experiment 1, 10 μM/Well",2.46%
same,"% of TUNEL Positive S2 Cells, Mean","S2 cells; Experiment 1, 25 μM/Well",1.27%
same,"% of TUNEL Positive S2 Cells, Mean","S2 cells; Experiment 1, 30 μM/Well",5.59%
same,"% of TUNEL Positive S2 Cells, Mean","S2 cells; Experiment 1, 40 μM/Well",19.94%
same,"% of TUNEL Positive S2 Cells, Mean","S2 cells; Experiment 2, 10 μM/Well",6.79%
same,"% of TUNEL Positive S2 Cells, Mean","S2 cells; Experiment 2, 15 μM/Well",7.56%
same,"% of TUNEL Positive S2 Cells, Mean","S2 cells; Experiment 2, 25 μM/Well",11.19%
same,"% of TUNEL Positive S2 Cells, Mean","S2 cells; Experiment 2, 40 μM/Well",20.51%
same,"% of TUNEL Positive S2 Cells, Mean","S2 cells; Experiment 2, 70 μM/Well",30.34%
same,Apoptosis induction compared between peptides (TUNEL),"S2 cells; S2 cells, 10-70 μM",showed some activity compared to the mutant-blocked peptide at doses higher than 30 μM
"rrrrrrrrrSCALAFVN (SCALAFVN-NH2; not fully specified (N-terminus); printed as rrrrrrrrrSCALAFVN; UniProt Q64364 37-44, looked up, fragment) [mutant ARF peptide, reference compound]",Kidney tumor mass at sacrifice,[3],large tumor masses were found in the kidney
same,Luciferase signal from colonized lymphoma cells,[3]; around 20 days after inoculation,displayed strong luciferase signals
